Results published in patent EP1285918A1, “C7 Ester substituted taxanes as antitumor agents” (Florida State University Research Foundation, Inc., priority 2001, dated 2003).
Read-outs that look alike come from different tables or passages of the source.

Columns and labels:
[1] = system: HCT116 Human Colon Carcinoma Xenograft; conditions: for Mean Score: tumor score 1 to 10, group mean
[2] = system: A2780 Human Ovarian Carcinoma Xenografts
Procedure: Other antitumor compounds were similarly formulated. […] The dosing volume was 0.3 ml per 20 g mouse.
Female NCr-nude mice (implanted subcutaneously with 1 mm^3 A2780 ovarian carcinoma fragments in the flank) were sorted into treatment groups of five mice each, except for the Taxotere treatment group including six mice. […] Dosing was initiated on Day 1. The antitumor compounds were given i.v. at an estimated maximum tolerated dose (MTD) appropriate for each agent on a qd x 1 schedule (single administration of compound). […] Taxotere was given i.v. on a qd x 1 schedule at a dose of 70 mg/kg. The vehicle was administered i.v. to control mice in Group 1 on the qd x 1 schedule. Treatment groups are detailed in Table 7. The study was terminated on Day 60.
(§1) The results are summarized in Table 8 and include mean days of survival (MDS), number of toxic deaths, number of survivors, number of complete or partial responses, and number with stable disease. The mean days of survival is the number of days after which a neoplasm reached a size of 2.0 g and the animal was euthanized. A complete response is obtained if the tumor is not palpable at the end of the study. A partial response is obtained if the tumor shrinks to a size smaller than its size on Day 1 of the study.

[3] = system: HCT116; assay: In Vitro cytotoxicity measured by the cell colony formation assay; format: cell-based; conditions: Homo sapiens, HCT-116; 72 h drug incubation, colonies counted after 7 days; concentration producing 50% inhibition of colony formation; read-out: IN VITRO ID 50 (nm) HCT116
[4] = system: SK-MES carcinoma; assay: In vivo evaluation against SK-MES human lung carcinoma xenograft, i.v. (Example 11)
Procedure: Two antitumor compounds were formulated for an i.v. dosing regime prepared in the following vehicle: 10% ethanol, 10% Cremophor and 80% isotonic saline. […] Other compounds were formulated similarly.
The MTDs for the antitumor compounds were calculated from earlier single dose data for mice receiving i.v. administration of these compounds. […] Vehicle control animals were dosed twice intravenously with half the total volume being given separated by one hour. The study was terminated at Day 60.
as §1, with “1” for “8”, “1.5” for “2.0”
A tumor scoring system was designed to provide a more quantitative ranking of efficacy (therapeutic potential) among the antitumor agents evaluated against the different human solid tumor xenografts. Each mouse in a study was given a score of from 1 to 10 at the end of the study. The scores can be summarized as follows:
The individual score for each mouse was averaged into a mean score for each treatment group. […]

[5] = system: MX-1 Human Breast Carcinoma Xenograft; conditions: i.v. qd x 1 (Taxol 36 mg/kg split dose, 1393 72.6 mg/kg)
Procedure: Antitumor compounds were formulated for an i.v. dosing regime (single i.v. bolus on qd x 1 schedule) prepared in the following vehicle: 5% ethanol, 5% Cremophor and 90% isotonic saline. […] Other compounds were similarly formulated. […] The dosing volume was 0.3 ml per 20 g mouse.
All vehicle control animals in the split dosing regimes were dosed twice intravenously with half the total volume being given separated by one hour. The study was terminated on Day 60.
(§2) The mean days of survival is the number of days after which a neoplasm reached a size of 2.0 g and the animal was euthanized. A complete response is obtained if the tumor is not palpable at the end of the study. A partial response is obtained if the tumor shrinks to a size smaller than its size on Day 1 of the study. […]

[6] = system: SKMES Human Lung Carcinoma Xenograft; conditions: 40 mg/kg single oral bolus Day 1, 6 mice/group, study end Day 60
Procedure: Antitumor compounds were formulated for oral administration over a wide dose range in a study to investigate the efficacy of this compound against the SKMES human lung cancer xenograft. The antitumor compounds were prepared in the following vehicle: 5% ethanol, 5% Cremophor and 90% isotonic saline.
Female Nu/Nu mice (6-8 weeks of age; implanted with 1 mm^3 SKMES lung carcinoma fragments in the flank) were sorted into treatment groups of six mice each. SKMES size ranges and group mean SKMES size ranges were 126-448 mg and 238-241 mg, respectively. […] Treatments were administered as a single oral bolus on Day 1, and the study was terminated on Day 60.
as §2, with “which a SKMES neoplasm reached” for “which a neoplasm reached”

[7] = HCT116, Taxol i.p. 18 mg/kg qd x 5
[8] = HCT116, Taxol i.p. 18 mg/kg qd x 5, 5 mice, Day 60
[9] = HCT116, i.v. Day 1 (Taxol 36 mg/kg split dose, 1393 73 mg/kg single dose), 5 mice/group, Day 60
[10] = Taxol i.p. 15 mg/kg qd x 5, 5 mice, Day 60
[11] = i.v. qd x 1 (mg/kg: Taxol 24, 1351 75.3, 1401 107.6, 1418 107.6, Taxotere 70), Day 60
[12] = i.v. split dose qd x 1 at MTD (Taxol 36 mg/kg, 1393 72.1 mg/kg), 6 mice/group, Day 60

CC(=O)O[C@H]1C(=O)[C@@]2(C)[C@H]([C@H](OC(=O)c3ccccc3)[C@]3(O)C[C@H](OC(=O)[C@H](O)[C@@H](NC(=O)c4ccccc4)c4ccccc4)C(C)=C1C3(C)C)[C@]1(OC(C)=O)CO[C@@H]1C[C@@H]2O [Taxol, paclitaxel, reference compound]
increase in survival compared to control Group 1 ([1]; HCT116, Taxol 36 mg/kg i.v. qd x 1): 24%
survival extension compared to Group 1 control mice [1, 7]: 84%
Complete Response [1, 8]: 0
Stable Disease [1, 8]: 0
Survivors [1, 8]: 1
Toxic Deaths [1, 8]: 0
Mean Score [1, 7]: 3.6 ± 1.4
MDS (n) ([1]; HCT116, i.v. Day 1 (Taxol 36 mg/kg split dose, 1393 73 mg/kg single dose), 5 mice/group, 2.0 g cut-off, Day 60): 27.5 ± 1.7 (4) days
Complete Response [1, 9]: 0
Partial Response [1, 9]: 0
Survivors [1, 9]: 1
Toxic Deaths [1, 9]: 0
Mean Score ([1]; HCT116, i.v. Day 1 (Taxol 36 mg/kg split dose, 1393 73 mg/kg single dose)): 2.2 ± 0.5
tolerability ([1]; mouse, in vivo, iv, 73 mg/kg): well-tolerated
toxicity ([2]; Taxol i.p. 15 mg/kg qd x 5): highly toxic
Complete Response [2, 10]: 0
Partial Response [2, 10]: 0
Stable Disease [2, 10]: 0
Survivors [2, 10]: 0
Mean Score ([2]; Taxol i.p. 15 mg/kg qd x 5, tumor score 1 to 10, group mean): 0.6 ± 0.6
MDS (n) ([2]; i.v. qd x 1 (mg/kg: Taxol 24, 1351 75.3, 1401 107.6, 1418 107.6, Taxotere 70), 2.0 g cut-off, Day 60): 21.9 ± 5.5 (5) days
Complete Response [2, 11]: 0
Partial Response [2, 11]: 0
Survivors [2, 11]: 1
Toxic Deaths [2, 11]: 0
Mean Score ([2]; i.v. qd x 1 (mg/kg: Taxol 24, 1351 75.3, 1401 107.6, 1418 107.6, Taxotere 70), tumor score 1 to 10, group mean): 1.8 ± 0.4
survival extension compared to Group 1 controls ([2]; i.v. qd x 1 (mg/kg: Taxol 24, 1418 107.6, Taxotere 70)): 87%
IC50 [3]: 2.1 nM
survival extension compared to vehicle controls ([4]; Taxol 36 mg/kg i.v.): 30%
tolerability ([4]; i.v. at MTD): well tolerated
MDS (n) ([4]; i.v. split dose qd x 1 at MTD (Taxol 36 mg/kg, 1393 72.1 mg/kg), 6 mice/group, 1.5 g cut-off, Day 60): 16 ± 2.0 (6) days
Complete Response [4, 12]: 0
Partial Response [4, 12]: 0
Stable Disease [4, 12]: 0
Survivors [4, 12]: 0
Toxic Deaths [4, 12]: 0
Mean Score ([4]; i.v. split dose qd x 1 at MTD (Taxol 36 mg/kg, 1393 72.1 mg/kg), tumor score 1 to 10 per mouse, group mean): 1.3 ± 0.3
Complete Response ([5]; 6 mice/group, Day 60): 0
Partial Response ([5]; 6 mice/group, Day 60): 0
Survivors ([5]; 6 mice/group, Day 60): 1
Mean Score ([5]; tumor score 1 to 10, group mean): 1.2 ± 0.8
% Total Response [6]: 0%
Complete Responses [6]: 0
Partial Responses [6]: 0
Stable Disease [6]: 0
Survivors [6]: 0
Toxic Deaths [6]: 0
MDS (n) ([6]; days until tumor reached 2.0 g): 13.2 ± 1.4 (6) days
